# What was measured:
# [1] = target: T1, neutrophil collagenase (MMP-8) (Homo sapiens, UniProt P22894); test: Enzymatic activity of the catalytic domain of neutrophil collagenase (MMP-8), fluorogenic substrate; type: biochemical
# T1 construct: Catalytic Domain of Human Stromelysin (MMP-3) and of Neutrophil Collagenase (MMP-8); made in house
# Experimental: Preparation and Determination of the Enzymatic Activity of the Catalytic Domain of Human Stromelysin (MMP-3) and of Neutrophil Collagenase (MMP-8)
# The two enzymes stromelysin (MMP-3) and neutrophil collagenase (MMP-8) were prepared by the method of Ye et al. (Biochemistry; 31 (1992) pages 11 231-11 235). The enzymic activity or the effect of the enzyme inhibitor was measured by incubating 10 μl of enzyme solution with 10 μl of a 3% strength (v/v) buffered dimethyl sulfoxide solution which contained the enzyme inhibitor where appropriate, for 15 minutes. After addition of 10 μl of a 3% strength (v/v) aqueous dimethyl sulfoxide solution which contained 1 mmol/l of the substrate, the enzymic reaction was followed by fluorescence spectroscopy (328 nm (ex)/393 nm(em)). The enzymic activity is presented as increase in extinction/minute.
# The IC50 values listed in Table 4 were determined as the inhibitor concentrations leading in each case to 50% inhibition of the enzyme. The buffer solution contained 0.05% Brij (Sigma, Deisenhofen, Germany) and 0.1 mol/l Tris/HCl, 0.1 mol/l NaCl, 0.01 mol/l CaCl2 and 0.1 mol/l piperazine-N,N′-bis[2-ethanesulfonic acid] (pH=7.5).
# The MMP-3 enzyme solution contained 2.3 μg/ml and the MMP-8 enzyme solution 0.6 μg/ml of one of the enzyme domains prepared by the method of Ye et al. The substrate solution contained 1 mmol/l of the fluorogenic substrate (7-methoxycoumarin-4-yl)acetyl-Pro-Leu-Gly-Leu-3-(2′,4′-dinitrophenyl)-L-2,3-diaminopropionyl-Ala-Arg-NH2 (Bachem, Heidelberg, Germany).
# [2] = target: T2, catalytic domain of human gelatinase-A (MMP-9) (Homo sapiens, UniProt P14780); test: Enzymatic activity of the catalytic domain of human gelatinase (MMP-9), fluorogenic substrate; type: biochemical; conditions: for MMP9:MMP1, selectivity of inhibition of MMP-9 in relation to MMP-1: ratio of the IC50 values of Table 4
# T2 construct: Determination of the Enzymatic Activity of the Catalytic Domain of Human Gelatinase-A (MMP-9); purchased Roche, Mannheim
# T2 sequence (P14780 107-707 limits assumed): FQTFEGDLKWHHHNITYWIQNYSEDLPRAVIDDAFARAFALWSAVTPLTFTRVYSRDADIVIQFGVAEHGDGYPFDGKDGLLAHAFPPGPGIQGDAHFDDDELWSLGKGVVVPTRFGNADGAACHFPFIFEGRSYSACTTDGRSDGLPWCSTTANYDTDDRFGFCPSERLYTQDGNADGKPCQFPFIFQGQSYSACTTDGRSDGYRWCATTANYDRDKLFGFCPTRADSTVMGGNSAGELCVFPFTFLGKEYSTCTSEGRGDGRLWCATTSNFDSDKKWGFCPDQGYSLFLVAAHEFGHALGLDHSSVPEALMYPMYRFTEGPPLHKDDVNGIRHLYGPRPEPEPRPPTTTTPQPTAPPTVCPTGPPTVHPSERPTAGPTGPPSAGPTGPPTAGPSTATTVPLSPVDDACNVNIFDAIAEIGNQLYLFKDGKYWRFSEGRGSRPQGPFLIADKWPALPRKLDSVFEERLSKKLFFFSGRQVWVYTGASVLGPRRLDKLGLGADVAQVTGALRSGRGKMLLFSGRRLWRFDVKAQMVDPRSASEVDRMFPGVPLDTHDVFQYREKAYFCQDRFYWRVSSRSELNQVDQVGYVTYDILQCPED
# Experimental: Determination of the Enzymatic Activity of the Catalytic Domain of Human Gelatinase-A (MMP-9)
# Activation of the proenzyme:
# 2 parts by volume of proenzyme were incubated with 1 part by volume of APMA solution at 37° C. for 4 hours. The APMA solution was prepared from a 10 mmol/l p-aminophenylmercuric acetate solution in 0.1 mmol/l NaOH by dilution with 3 parts by volume of Tris/HCl buffer pH 7.5 (see below). The pH was adjusted to between 7.0 and 7.5 by adding 1 mmol/l HCl. After activation of the enzyme it was diluted with the Tris/HCl buffer to a concentration of 4.2 mU/ml.
# The enzymic activity was measured by incubating 10 μl of enzyme solution with 10 μl of a 3% strength (v/v) buffered dimethyl sulfoxide solution (reaction 1) for 15 minutes. The enzyme inhibitor activity was measured by incubating 10 μl of enzyme solution with 10 μl of a 3% strength (v/v) buffered dimethyl sulfoxide solution which contained the enzyme inhibitor (reaction 2).
# The enzymic reaction both in the case of reaction 1 and in the case of reaction 2 was followed after addition of 10 μl of a 3% strength (v/v) aqueous dimethyl sulfoxide solution which contained 0.15 mmol/l of the substrate by fluorescence spectroscopy (328 nm (extinction)/393 nm (emission)).
# The enzymic activity has been presented as increase in extinction/minute.
# The effect of the inhibitor was calculated as percentage inhibition by the following formula: % inhibition=100−[(increase in extinction/minute in reaction 2)/(increase in extinction/minute in reaction 1)×100].
# The IC50, which is the concentration of inhibitor which is necessary for 50% inhibition of the enzymic activity, was determined graphically by plotting the percentage inhibitions at various inhibitor concentrations.
# The buffer solution contained 0.05% Brij (Sigma, Deisenhofen, Germany) and 0.1 mol/l Tris/HCl, 0.1 mol/l NaCl, 0.01 mol/l CaCl2 (pH=7.5). The enzyme solution contained 4.2 mU/ml of the enzyme domain. The substrate solution contained 0.15 mmol/l of the fluorogenic substrate (7-methoxycoumarin-4-yl)acetyl-Pro-Leu-Gly-Leu-3-(2′,4′-dinitrophenyl)-L-2,3-diaminopropionyl-Ala-Arg-NH2 (Bachem, Heidelberg, Germany).
# T1 sequence (P22894 100-262 limits assumed): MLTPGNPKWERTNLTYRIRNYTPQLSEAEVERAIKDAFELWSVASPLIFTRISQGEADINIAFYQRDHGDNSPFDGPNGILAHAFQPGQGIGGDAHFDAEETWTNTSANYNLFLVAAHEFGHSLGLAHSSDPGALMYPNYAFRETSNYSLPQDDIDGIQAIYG
IC50 [1],IC50 [2],"MMP9:MMP1, selectivity of inhibition of MMP-9 in relation to MMP-1 [2]",Compound
3.2 nM,3.2 nM,313,"O=C(NO)[C@H]1c2ccccc2CCN1S(=O)(=O)c1ccc(Oc2ccc(C(F)(F)F)cc2)cc1 [Compound 21, (R)-2-[4-(4-trifluoromethylphenoxy)benzenesulfonyl]-1,2,3,4-tetrahydro-isoquinoline-1-hydroxycarboxamide]"
30 nM,20 nM,>500,"O=C(NO)[C@H]1c2ccccc2CCN1S(=O)(=O)c1ccc(Oc2ccc(OC(F)(F)F)cc2)nc1 [Compound 43, (R)-2-[6-(4-trifluoromethoxyphenoxy)pyridine-3-sulfonyl]-1,2,3,4-tetrahydro-isoquinoline-1-hydroxycarboxamide]"
110 nM,18 nM,89,O=C(NO)[C@H]1c2ccccc2CCN1S(=O)(=O)c1ccc(Oc2ccc(OCC(F)(F)F)cc2)cc1 [Compound 22]
4 nM,2 nM,,"(R)-4-(1-hydroxycarbamoyl-3,4-dihydro-1H-isoquinoline-2-sulfonyl)phenyl benzoate [Compound 48]"

# The remaining lines, values behind:
Compound,IC50 [1],IC50 [2],"MMP9:MMP1, selectivity of inhibition of MMP-9 in relation to MMP-1 [2]"
O=C(NO)[C@H]1c2ccccc2CCN1S(=O)(=O)c1ccc(Oc2ccncc2)cc1 [Compound 11],3 nM,1.8 nM,78
COc1cc2c(cc1OC)[C@@H](C(=O)NO)N(S(=O)(=O)c1ccc(-c3ccc(Cl)cc3)cc1)CC2 [Compound 15],2 nM,1 nM,300
O=C(NO)[C@H]1c2ccccc2CCN1S(=O)(=O)c1ccc(Oc2ccc(Cl)cc2)cc1 [Compound 9],2.2 nM,1 nM,2
"O=C(NO)[C@H]1c2ccccc2CCN1S(=O)(=O)c1ccc(Oc2ccc(Cl)cc2)nc1 [Compound 45, (R)-2-[6-(4-chlorophenoxy)pyridine-3-sulfonyl]-1,2,3,4-tetrahydroisoquinoline-1-hydroxycarboxamide]",9 nM,3 nM,667
COc1ccc(F)c2c1[C@H](C(=O)NO)N(S(=O)(=O)c1ccc(-c3ccc(Cl)cc3)cc1)CC2 [Compound 18],14 nM,60 nM,67
"2-{2-[4-(4-fluorophenoxy)phenyl]ethanesulfonyl}-1,2,3,4-tetrahydroisoquinoline-1-hydroxycarboxamide [Compound 20]",2.2 nM,1.3 nM,231

# Reference: patent US20070203118A1, “SUBSTITUTED TETRAHYDROISOQUINOLINES USED IN THE FORM OF MMP INHIBITORS, METHOD FOR THE PRODUCTION AND USE THEREOF IN THE FORM OF DRUGS” (SANOFI-AVENTIS DEUTSCHLAND GMBH, priority 2004, published 2007)
